Reference: the supplement of paper PMC11451515

What was measured:
Conditions in all cases: 48 h
P12-Ichikawa [1] = experiment: cell viability relative to DMSO control; higher = less cytotoxic
Method in brief: (§1)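 Cells were incubated for 48 h at 37°C before CellTiter-Glo One luminescence was read. The cells were NOMO1 or SEM (500 cells/well) or P12-Ichikawa (1000 cells/well) leukemia cells, adapted for at least four passages in each medium and seeded in 1536-well plates (5 μl). Dosing used library compounds in DMSO applied by pin over 11 threefold points, 47 μM to 0.79 nM. Viability is the per-plate percentage of DMSO wells, with cell-free wells as background.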

SEM cells [2] = experiment: as above
Method in brief: as §1

NOMO1 [3] = experiment: as above
Method in brief: as §1

P12-Ichikawa [4] = experiment: AUC of viability dose-response curve (% viability x log10 dose units); higher = less sensitive
Method in brief: (§2)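 In 1536-well plates, leukemia cells adapted to each medium (500 or 1000 cells/well) were exposed for 48 h at 37°C to library compounds in DMSO across 11 threefold doses, 47 μM down to 0.79 nM. Viability was read by CellTiter-Glo One luminescence and normalised per plate to DMSO and cell-free wells. A four-parameter log-logistic fit over log10 doses was integrated by trapezoidal rule. This yielded the area under the curve, with over-full-viability curves scaled and quality-control failures dropped.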

SEM cells [5] = experiment: as above
Method in brief: as §2

NOMO1 [6] = experiment: as above
Method in brief: as §2

CC(=O)C\1=C(/C)C2=CN=C(NC3=CC=C(C=N3)N4CCNCC4)N=C2N(C5CCCC5)C1=O
cell viability [%]
Conditions	NOMO1 [3]	P12-Ichikawa [1]	SEM cells [2]
HPLM + 10% dialyzed FBS, 0.000781 µM	–	111	124
HPLM + 10% dialyzed FBS, 0.00234 µM	–	121	125
HPLM + 10% dialyzed FBS, 0.00702 µM	–	119	107
HPLM + 10% dialyzed FBS, 0.0211 µM	–	114	125
HPLM + 10% dialyzed FBS, 0.0632 µM	–	114	119
HPLM + 10% dialyzed FBS, 0.19 µM	–	110	109
HPLM + 10% dialyzed FBS, 0.569 µM	–	107	80.6
HPLM + 10% dialyzed FBS, 1.71 µM	–	93.1	68.1
HPLM + 10% dialyzed FBS, 5.12 µM	–	88.5	59.6
HPLM + 10% dialyzed FBS, 15.4 µM	–	77	60.8
HPLM + 10% dialyzed FBS, 46.1 µM	–	28.9	27.5
RPMI 5 mM glucose + 10% FBS, 0.000781 µM	123	119	114
RPMI 5 mM glucose + 10% FBS, 0.00234 µM	118	116	119
RPMI 5 mM glucose + 10% FBS, 0.00702 µM	103	124	133
RPMI 5 mM glucose + 10% FBS, 0.0211 µM	113	113	113
RPMI 5 mM glucose + 10% FBS, 0.0632 µM	136	113	126
RPMI 5 mM glucose + 10% FBS, 0.19 µM	110	119	126
RPMI 5 mM glucose + 10% FBS, 0.569 µM	105	98.5	100
RPMI 5 mM glucose + 10% FBS, 1.71 µM	96.7	78.6	80.5
RPMI 5 mM glucose + 10% FBS, 5.12 µM	98	72.6	61.6
RPMI 5 mM glucose + 10% FBS, 15.4 µM	87.1	66.6	59.9
RPMI 5 mM glucose + 10% FBS, 46.1 µM	68.8	61	22.2
RPMI 5 mM glucose + 10% dialyzed FBS, 0.000781 µM	113	122	125
RPMI 5 mM glucose + 10% dialyzed FBS, 0.00234 µM	114	117	107
RPMI 5 mM glucose + 10% dialyzed FBS, 0.00702 µM	111	127	130
RPMI 5 mM glucose + 10% dialyzed FBS, 0.0211 µM	112	117	122
RPMI 5 mM glucose + 10% dialyzed FBS, 0.0632 µM	107	118	127
RPMI 5 mM glucose + 10% dialyzed FBS, 0.19 µM	112	114	99.2
RPMI 5 mM glucose + 10% dialyzed FBS, 0.569 µM	96.3	104	86.8
RPMI 5 mM glucose + 10% dialyzed FBS, 1.71 µM	79.1	83.4	74.4
RPMI 5 mM glucose + 10% dialyzed FBS, 5.12 µM	80.9	76.9	68.5
RPMI 5 mM glucose + 10% dialyzed FBS, 15.4 µM	68.6	73	63.6
RPMI 5 mM glucose + 10% dialyzed FBS, 46.1 µM	60.1	45.6	29.2

AUC of viability dose-response curve
Conditions	NOMO1 [6]	P12-Ichikawa [4]	SEM cells [5]
HPLM + 10% dialyzed FBS	424	420	357
RPMI 5 mM glucose + 10% FBS	429	400	378
RPMI 5 mM glucose + 10% dialyzed FBS	406	392	365

CC(C)(C)C(=O)OCOP(=O)(COCCn1cnc2c(N)ncnc21)OCOC(=O)C(C)(C)C
cell viability [%]
Conditions	NOMO1 [3]	P12-Ichikawa [1]	SEM cells [2]
HPLM + 10% dialyzed FBS, 0.000781 µM	86.9	97.4	84.1
HPLM + 10% dialyzed FBS, 0.00234 µM	99.5	110	112
HPLM + 10% dialyzed FBS, 0.00702 µM	93.6	103	104
HPLM + 10% dialyzed FBS, 0.0211 µM	108	103	101
HPLM + 10% dialyzed FBS, 0.0632 µM	88.3	73.1	71.9
HPLM + 10% dialyzed FBS, 0.19 µM	62.2	73.5	51
HPLM + 10% dialyzed FBS, 0.569 µM	68.2	70.2	68.1
HPLM + 10% dialyzed FBS, 1.71 µM	33.9	50.1	38.1
HPLM + 10% dialyzed FBS, 5.12 µM	32.2	27.4	25.6
HPLM + 10% dialyzed FBS, 15.4 µM	18.9	19	14.1
HPLM + 10% dialyzed FBS, 46.1 µM	2.01	29.2	7.08
RPMI 5 mM glucose + 10% FBS, 0.000781 µM	109	94.7	108
RPMI 5 mM glucose + 10% FBS, 0.00234 µM	96	104	101
RPMI 5 mM glucose + 10% FBS, 0.00702 µM	98.2	92.3	108
RPMI 5 mM glucose + 10% FBS, 0.0211 µM	98.6	94.6	88
RPMI 5 mM glucose + 10% FBS, 0.0632 µM	70.3	69.5	61.7
RPMI 5 mM glucose + 10% FBS, 0.19 µM	61.4	72.9	42.7
RPMI 5 mM glucose + 10% FBS, 0.569 µM	44.4	52.6	51.4
RPMI 5 mM glucose + 10% FBS, 1.71 µM	19.9	29.9	26.5
RPMI 5 mM glucose + 10% FBS, 5.12 µM	15.8	15	13
RPMI 5 mM glucose + 10% FBS, 15.4 µM	9.1	10.7	7.59
RPMI 5 mM glucose + 10% FBS, 46.1 µM	2.21	19.6	2.97
RPMI 5 mM glucose + 10% dialyzed FBS, 0.000781 µM	101	89.3	86.6
RPMI 5 mM glucose + 10% dialyzed FBS, 0.00234 µM	93.6	96.3	95.4
RPMI 5 mM glucose + 10% dialyzed FBS, 0.00702 µM	91.9	94.7	95.3
RPMI 5 mM glucose + 10% dialyzed FBS, 0.0211 µM	93.7	86.4	85.1
RPMI 5 mM glucose + 10% dialyzed FBS, 0.0632 µM	78.5	82.1	48.5
RPMI 5 mM glucose + 10% dialyzed FBS, 0.19 µM	66.9	65	39.8
RPMI 5 mM glucose + 10% dialyzed FBS, 0.569 µM	47.7	61.6	42.2
RPMI 5 mM glucose + 10% dialyzed FBS, 1.71 µM	28.6	46.7	23.2
RPMI 5 mM glucose + 10% dialyzed FBS, 5.12 µM	14.9	28.8	13
RPMI 5 mM glucose + 10% dialyzed FBS, 15.4 µM	14.2	28.8	10.9
RPMI 5 mM glucose + 10% dialyzed FBS, 46.1 µM	2.41	27.4	3.51

AUC of viability dose-response curve
Conditions	NOMO1 [6]	P12-Ichikawa [4]	SEM cells [5]
HPLM + 10% dialyzed FBS	306	316	291
RPMI 5 mM glucose + 10% FBS	259	287	238
RPMI 5 mM glucose + 10% dialyzed FBS	278	309	235
